Measurements as given in patent publication US20230210110A1, “METHOD FOR INDUCING ENVIRONMENTAL STRESS TOLERANCE IN PLANTS” (AJINOMOTO CO., INC., priority 2020, published 2023).
Entries after “also recorded” stand apart in the source; their conditions may differ.

What was measured:
[1] = test system: Wheat (Norin 61); assay: Drought stress tolerance of wheat: water loss and survival rate; assay type: in vivo; conditions: 10 μM ABA (2.5 mM Lys in the combination)
Method: A test for verifying an effect of conferring drought stress tolerance by a combination of Lys and ABA in wheat was carried out. Wheat (Norin 61) grown on rockwool under long-day conditions for 13 days was spray treated with 10 μM of ABA alone or with 2.5 mM or 10 mM of Lys and 10 μM of ABA in combination. As a control treatment group (Mock), the wheat was spray treated with DMSO. After the spray treatment, cultivation was continued without water supply, to subject wheat to drought stress. During cultivation, the water loss from the rockwool was measured. Water was again supplied to the wheat 21 days after the spray treatment, and the survival rate was measured 23 days after the spray treatment (n=24).

[2] = test system: RD29B and MAPKKK18; assay: Effect of Lys derivatives and nitrogen-containing compounds on induction of environmental stress tolerance genes by ABA (activity level); assay type: in vivo, Arabidopsis thaliana; conditions: total of induction activities of RD29B and MAPKKK18 with 1 mM compound and 0.25 μM ABA, relative to ABA alone taken as 1; >1 enhanced, 1 no effect, <1 suppressed
Method: (§1) Four to six young Arabidopsis thaliana plants grown on a 50% concentration MS (Murashige-Skoog) agar medium were transferred to a 6-well plate containing a 50% concentration MS (Murashige-Skoog) liquid medium and pre-cultured for 16 hours, then added with a treatment solution containing each amino acid alone or a treatment solution containing a combination of each amino acid and ABA, and left for 6 hours. Then, RNA was then isolated from the plants with a nucleic acid purification kit (Promega, Maxwell (registered trademark) 16 LEV simplyRNA Tissue Kit). Then, cDNA was synthesized with a cDNA synthesis reagent for real-time PCR (Toyobo, ReverTra Ace (registered trademark) qPCR RT Master Mix).
GAPDH is a glyceraldehyde-3-phosphate dehydrogenase gene and was selected as an internal standard.
Lys or each Lys derivative is used for treatment at 1 mM and ABA at 0.25 μM.

[3] = test system: Arabidopsis thaliana; assay: Drought stress tolerance: survival rate after drought and re-watering; assay type: in vivo; conditions: 12 days after spray, water supplied again at 9 days; 50 μM ABA (2.5 mM Lys in the combination); Mock 8.5%
Method: A test for verifying an effect of conferring drought stress tolerance by a combination of Lys and ABA was carried out. Arabidopsis thaliana grown on rockwool under short-day conditions for 35 days was spray treated with 50 μM of ABA alone or with 2.5 mM of Lys and 50 μM of ABA in combination. As a control treatment group (Mock), Arabidopsis thaliana was spray treated with DMSO. After the spray treatment, cultivation was continued without water supply, to subject Arabidopsis thaliana to drought stress. Water was again supplied to Arabidopsis thaliana 9 days after the spray treatment, and the survival rate was measured 12 days after the spray treatment (n=94-96).

[4] = test system: Arabidopsis thaliana; assay: Drought stress tolerance: dehydration amount during cultivation without water supply; assay type: in vivo; conditions: spray, control approximately 77%
Method: A test for verifying an effect of conferring drought stress tolerance by a combination of Lys and ABA was carried out (n=4). For Arabidopsis thaliana grown on rockwool under short-day conditions for 35 days, the weight of the rockwool and the whole plant was measured, to determine the initial weight. Arabidopsis thaliana was spray treated with 2.5 mM of Lys and 5 μM or 50 μM of ABA alone or in combination (first spray treatment). As a control treatment group, Arabidopsis thaliana was spray treated with DMSO (first spray treatment). After the first spray treatment, cultivation was continued for 7 days without water supply. During cultivation, a second spray treatment was carried out 4 days after the first spray treatment. The weight of the rockwool and the whole plant was measured 4 and 7 days after the first spray treatment, to determine the post-cultivation weight. The post-cultivation weight was subtracted from the initial weight, to determine the dehydration amount during cultivation.

[5] = test system: tomato (variety Caramba); assay: Yield of tomato under drought stress, greenhouse pot test; assay type: in vivo; conditions: for Yield (g/plot accumulation): drought stress 50% water, four foliar sprays, ABA is (S)-(+)-abscisic acid, Lys is L-Lys hydrochloride, control with drought 924.2; for % to T2: yield relative to control with drought stress (T2)
Method: A pot test of tomato was carried out in a greenhouse in Valencia, Spain. The test was carried out using 20 pots (=20 replications) of tomatoes grown on pots of 0.3 m^2 size. The variety of tomato used was Caramba. Abscisic acid used was (S)-(+)-abscisic acid and Lys used was L-Lys hydrochloride. Foliar spray treatments were carried out four times. The first treatment was carried out at time 61 on the BBCH scale (BBCH61: when the first flower of the first inflorescence bloomed), the second treatment was carried out 21 days after the first treatment, the third treatment was carried out 14 days after the second treatment, and the fourth treatment was carried out 14 days after the third treatment. A harvest survey was carried out at time 82 on the BBCH scale (BBCH82: when 20% of the fruit were fully ripe and colored).

[6] = test system: RD29A, RD29B, MAPKKK18, ABF3F and SLAC1 genes; assay: Induction of expression of environmental stress tolerance (ABA-responsive) genes, real-time PCR, relative to GAPDH; assay type: in vivo, Arabidopsis thaliana
Method: as §1
MAPKKK18 is a gene encoding a kinase (MAPKKK18, MITOGEN-ACTIVATED PROTEIN KINASE KINASE KINASE 18) that functions in the ABA signaling pathway of Arabidopsis thaliana (Zelicourt A. et al., Trends in Plant Science 21: (2016)). RD29A and RD29B are genes encoding hydrophilic proteins (RESPONSIVE TO DESICCATION 29A, RESPONSIVE TO DESICCATION 29B) that are responsive for ABA and environmental stress such as drought stress and salinity stress and considered to be involved in stress tolerance and senescence suppression (Yang S. D. et al., Plant Cell 6: 2155-2168 (2011)). ABF3 is a gene encoding a transcription factor (ABA-responsive element-binding protein) that regulates expression of ABA-responsive genes (Yoshida T. et al., Plant, cell and Environment 38: 35-49 (2015)). SLAC1 is a gene encoding an anion channel involved in stomatal closure (Yoshida et al., J Plant Res (2016) 129:39-49). GAPDH is a glyceraldehyde-3-phosphate dehydrogenase gene and was selected as an internal standard.
The expression levels of the genes were calculated as relative expression levels to the GAPDH gene. Twenty amino acids were divided into 10 each, and the gene expression inducing activity when combined with ABA was evaluated in two tests (n=2).
(§2) The expression levels of the respective genes were calculated as relative expression levels to the GAPDH gene in the same manner as in Example 1.
Separately, Arabidopsis thaliana was treated with a combination of 0.1 mM, 0.25 mM, 1 mM, 2.5 mM, 10 mM, or 25 mM of Lys and 0.25 μM of ABA in the same manner as in Example 1, and expression of MAPKKK18, RD29A, and RD29B genes after 6 hours of treatment was analyzed (n=3). The expression levels of the respective genes were calculated as relative expression levels to the GAPDH gene in the same manner as in Example 1. […]
as §2, §2

[7] = test system: RD29A, RD29B, MAPKKK18, ABF3F and SLAC1 genes; assay: as above; assay type: in vivo, Arabidopsis thaliana; conditions: amino acid alone or combination with ABA, 6 hours, n=3
[8] = MAPKKK18, RD29A, RD29B, 0.05-2.5 mM Lys with 0.25 μM ABA, 6 hours, upper panel of FIG. 3

CC1=CC(=O)CC(C)(C)C1(O)/C=C/C(C)=C\C(=O)O (racemic) [ABA, abscisic acid, reference compound]
survival rate ([1]; 23 days after spray, water supplied again at 21 days, Mock 9.4%): 6.7% | dehydration amount on the 5th day ([1]; spray, control approximately 84%): approximately 61% | dehydration amount on the 6th day ([1]; spray, control approximately 91%): approximately 82% | Activity level [2]: 1 | survival rate [3]: 13.5% | dehydration amount on the 4th day ([4]; 5 μM ABA (2.5 mM Lys in the combination)): approximately 80.1% | dehydration amount on the 4th day ([4]; 50 μM ABA (2.5 mM Lys in the combination)): approximately 57% | Yield (g/plot accumulation) ([5]; 10 μM ABA and/or 2.5 mM Lys): 1008.1 g/plot | Yield (g/plot accumulation) ([5]; 100 μM ABA and/or 25 mM Lys): 1081.6 g/plot | % to T2 ([5]; 10 μM ABA and/or 2.5 mM Lys): 109.1% | % to T2 ([5]; 100 μM ABA and/or 25 mM Lys): 117.0% | Expression induction of RD29A and RD29B genes by ABA ([6]; wild-type strain (WT, Col-0), 0.25 μM ABA, 6 hours): observed

NCCCC[C@H](N)C(=O)O [No. 1, lysine]
activity to induce expression of the environmental stress tolerance gene RD29B [7]: No activity | Yield (g/plot accumulation) ([5]; 10 μM ABA and/or 2.5 mM Lys): 1089.3 g/plot | Yield (g/plot accumulation) ([5]; 100 μM ABA and/or 25 mM Lys): 1114.6 g/plot | % to T2 ([5]; 10 μM ABA and/or 2.5 mM Lys): 117.9% | % to T2 ([5]; 100 μM ABA and/or 25 mM Lys): 120.6% | activity of synergistically enhancing the effect of the natural-type ABA ([6]; Lys in combination with natural-type ABA ((S)-(+)-ABA)): synergistically enhance the effect of the natural-type ABA | Lys concentrations at which Lys concentration-dependent improvement in expression inducing activity was observed [6, 8]: ≥ 0.25 mM | Lys concentrations at which no improvement in expression inducing activity was observed [6, 8]: ≤ 0.1 mM | Lys concentration-dependent improvement in expression inducing activity ([6]; MAPKKK18, RD29A, RD29B, 0.1-25 mM Lys with 0.25 μM ABA, 6 hours, lower panel of FIG. 3): at least up to Lys concentrations of 10 mM or 25 mM | effect of Lys on inducing expression of environmental stress tolerance genes by ABA ([6]; MAPKKK18 and RD29B, 1 mM Lys in combination with 0.25 μM ABA, 6 hours): enhanced | effect of Lys on inducing expression of environmental stress tolerance genes by ABA agonist ([6]; MAPKKK18 and RD29B, 1 mM Lys in combination with opabactin (OP), 6 hours): enhanced | effect of Lys on inducing expression of environmental stress tolerance genes by ABA agonist ([6]; MAPKKK18 and RD29B, 1 mM Lys in combination with quinabactin (QB), 6 hours): enhanced | activity of synergistically enhancing the effect of ABA ([6]; RD29B expression, amino acid in combination with ABA, listed as Lys): synergistically enhance the effect of ABA; also recorded: significantly high activity | effect of enhancing the ABA activity by Lys ([6]; wild-type strain, 0.5 mM Lys with 0.25 μM ABA, 6 hours): observed
